Patent publication US7056917B2, “Drug efflux pump inhibitor” (Daiichi Pharmaceutical Co., Ltd., priority 2001, dated 2006)
Each block holds one compound with its values, some of them ahead of it.

How the values were obtained:
[1] = test system: Pseudomonas aeruginosa PAM 1723 strain highly expressing the drug efflux pump; assay: Effect of combined use with antimicrobial agent (levofloxacin, aztreonam) on multidrug resistant Pseudomonas aeruginosa; type: cell-based; conditions: 18 hours, MHB; for MPC8 AZT: minimum concentration of test compound required to enhance antibacterial activity of aztreonam at 1/8 or less of MIC; for MPC4 LVFX: minimum concentration of test compound required to enhance antibacterial activity of levofloxacin applied at 1/4 of MIC; for MPC8 LVFX: minimum concentration of test compound required to enhance antibacterial activity of levofloxacin applied at 1/8 or less of MIC
From the text: Effect of Combined Use with Antimicrobial Agent on Multidrug Resistant Pseudomonas aeruginosa
As multidrug resistant Pseudomonas aeruginosa, Pseudomonas aeruginosa PAM 1723 strain highly expressing the drug efflux pump was used. As antimicrobial drugs for the combinational uses, levofloxacin (LVFX) as a quinolone antibacterial agent and aztreonam (AZT) as a monobactam antibiotic were used. Each of the compounds shown in Table 1 with Example No., which falls within the compounds of the present invention, was subjected to the measurement of its minimum concentration (μg/ml) that was required to enhance the antibacterial activity of levofloxacin when the test compound was used in combination with levofloxacin applied at a concentration of 1/4, or 1/8 or less of the minimum inhibitory concentration against the PAM 1723 strain. […] Effects as combinational uses for 18 hours was indicated for each of the drugs. Effects were determined by visually observing the turbidity of the medium. The Müller-Hinton broth (MHB, Difco) was used as a medium, and the inoculum of the bacteria was 1×10^6 CFU/ml.

[2] = test system: Pseudomonas aeruginosa wild strain PAM 1020; assay: Combined use of a pump inhibitor, levofloxacin (LVFX) and meropenem (MEPM) evaluated by the three-dimensional checker board method; type: cell-based; conditions: for MIC: Pseudomonas aeruginosa, agent used alone, PAM 1020 strain
Experimental: (1) Effect of Combined Used of a Pump Inhibitor, Levofloxacin (LVFX) and Meropenem (MEPM) Evaluated by the Three-Dimensional Checker Board Method
The effect was measured by the three-dimensional checker board method by using Pseudomonas aeruginosa wild strain PAM 1020. The test strain was inoculated into Mueller-Hinton broth containing LVFX, MEPM (at 11 concentration levels and 0 μg/ml) and the compound of Example 26 (40-0.625 μg/ml and 0 μg/ml) at a concentration of 10^6 CFU/ml and cultured at 37° C. for 18 hours. Then, MIC was measured for sole and combined use. Measurement was performed by the checker board method and FIC index was calculated according to the following equation. FIC index=a/a0+b/b0+c/c0 wherein a0: MIC for Agent A used alone, a: MIC for Agent A when Agents A, B and C are used in combination, b0: MIC for Agent B used alone, b: MIC for Agent B when Agents A, B and C are used in combination, c0: MIC for Agent C used alone, c: MIC for Agent C when Agents A, B and C are used in combination.
It was determined that there was synergistic effect when FIC index was 0.75 or less, additive effect or weak synergistic effect when the index was more than 0.75 but not more than 1.125, no effect of combined use when the index was more than 1.125 but not more than 3.0, and antagonistic effect when the index was more than 3.0.

SMILES: CC(C)c1csc(COc2ccn3c(=O)c(/C=C/C(=O)O)c(N4CCCC(O)C4)nc3c2)n1 (centres unmarked) [Example 5, (E)-3-{2-(3-Hydroxypiperidino)-8-[(4-isopropyl-1,3-thiazol-2-yl)methoxy]-4-oxo-4H-pyrido[1,2-a]pyrimidin-3-yl}-2-propenoic acid]
- MPC8 AZT [1]: 8 µg/mL
- MPC4 LVFX [1]: 0.5 µg/mL
- MPC8 LVFX [1]: 8 µg/mL

SMILES: CC(C)(C)c1csc(NC(=O)c2ccn3c(=O)c(-c4nnn[nH]4)cnc3c2)n1 [Example 10, N8-[4-(tert-Butyl)-1,3-thiazol-2-yl]-4-oxo-3-(2H-1,2,3,4-tetrazol-5-yl)-4H-pyrido[1,2-a]pyrimidine-8-carboxamide]
- MPC8 AZT [1]: 4 µg/mL
- MPC4 LVFX [1]: 2 µg/mL
- MPC8 LVFX [1]: 16 µg/mL

SMILES: CC(C)(C)c1csc(NC(=O)c2ccn3c(=O)c(/C=C/C(=O)O)c(N4CCC[C@@H](OC(N)=O)C4)nc3c2)n1 [Example 18, (E)-3-[2-{(3R)-3-[(Aminocarbonyl)oxy]hexahydro-1-pyridinyl}-8-({[4-(tert-butyl)-1,3-thiazol-2-yl]amino}carbonyl)-4-oxo-4H-pyrido[1,2-a]pyrimidin-3-yl]-2-propenoic acid]
- MPC8 AZT [1]: 0.5 µg/mL
- MPC4 LVFX [1]: ≦0.25 μg/ml
- MPC8 LVFX [1]: 1 µg/mL

SMILES: CC(C)c1csc(/C=C/c2ccn3c(=O)c(/C=C/C(=O)O)c(N4CCN(C(=O)[C@@H](N)CCCNC(=N)N)CC4)nc3c2)n1 [Example 78, (E)-3-{2-[4-((2 S)-2-Amino-5-{[amino(imino)methyl]amino}pentanoyl)-piperazino]-8-[(E)-2-(4-isopropyl-1,3-thiazol-2-yl)-1-ethenyl]-4-oxo-4H-pyrido[1,2-a]-pyrimidin-3-yl}-2-propenoic acid]
- MPC8 AZT [1]: 1 µg/mL
- MPC4 LVFX [1]: 0.5 µg/mL
- MPC8 LVFX [1]: 1 µg/mL

SMILES: CC(C)c1csc(CCc2ccn3c(=O)c(/C=C/C(=O)[O-])c(N4CCN(C(=O)C[N+]56CCC(CC5)CC6)CC4)nc3c2)n1 [Example 94, (E)-3-{2-4-[2-(1-Azabicyclo[2.2.2]oct-1-yl)acetyl]piperazino-8-[2-(4-isopropyl-1,3-thiazol-2-yl)ethyl]-4-oxo-4H-pyrido[1,2-a]pyrimidin-3-yl}-2-propenoic acid]
- MPC8 AZT [1]: 16 µg/mL
- MPC4 LVFX [1]: 4 µg/mL
- MPC8 LVFX [1]: 16 µg/mL

SMILES: CC(C)c1csc(CCc2ccn3c(=O)c(/C=C/C(=O)NS(C)(=O)=O)c(N4CCOCC4)nc3c2)n1 [Example 98, N-((E)-3-{8-[2-(4-Isopropyl-1,3-thiazol-2-yl)ethyl]-2-morpholino-4-oxo-4H -pyrido[1,2-a]pyrimidin-3-yl}-2-propenoyl)methanesulfonamide]
- MPC8 AZT [1]: 4 µg/mL
- MPC4 LVFX [1]: 1 µg/mL
- MPC8 LVFX [1]: 4 µg/mL

- MIC [2]: 0.25 µg/mL
SMILES: C[C@H]1COc2c(N3CCN(C)CC3)c(F)cc3c(=O)c(C(=O)O)cn1c23 [LVFX, levofloxacin]
- FIC index ([2]; LVFX + MEPM 0.016 μg/ml, compound of Example 26 0 μg/ml, PAM 1020): 1.031
- FIC index ([2]; LVFX + MEPM 0.0313 μg/ml, compound of Example 26 0 μg/ml, PAM 1020): 1.0625
- FIC index ([2]; LVFX + MEPM 0.0625 μg/ml, compound of Example 26 0 μg/ml, PAM 1020): 1.125
- FIC index ([2]; LVFX + MEPM 0.125 μg/ml, compound of Example 26 0 μg/ml, PAM 1020): 1.250
- FIC index ([2]; LVFX + MEPM 0.25 μg/ml, compound of Example 26 0 μg/ml, PAM 1020): 1.5
- LVFX conc. ([2]; LVFX conc. in combination with MEPM 0.016 μg/ml and compound of Example 26 0.625 μg/ml, PAM 1020): 0.25 µg/mL
- LVFX conc. ([2]; LVFX conc. in combination with MEPM 0.016 μg/ml and compound of Example 26 1.25 μg/ml, PAM 1020): 0.25 µg/mL
- LVFX conc. ([2]; LVFX conc. in combination with MEPM 0.016 μg/ml and compound of Example 26 2.5 μg/ml, PAM 1020): 0.25 µg/mL
- LVFX conc. ([2]; LVFX conc. in combination with MEPM 0.016 μg/ml and compound of Example 26 5 μg/ml, PAM 1020): 0.125 µg/mL
- LVFX conc. ([2]; LVFX conc. in combination with MEPM 0.016 μg/ml and compound of Example 26 10 μg/ml, PAM 1020): 0.125 µg/mL
- LVFX conc. ([2]; LVFX conc. in combination with MEPM 0.016 μg/ml and compound of Example 26 20 μg/ml, PAM 1020): 0.125 µg/mL
- LVFX conc. ([2]; LVFX conc. in combination with MEPM 0.016 μg/ml and compound of Example 26 40 μg/ml, PAM 1020): 0.125 µg/mL
- LVFX conc. ([2]; LVFX conc. in combination with MEPM 0.016 μg/ml, compound of Example 26 0 μg/ml, PAM 1020): 0.25 µg/mL
- LVFX conc. ([2]; LVFX conc. in combination with MEPM 0.0313 μg/ml and compound of Example 26 0.625 μg/ml, PAM 1020): 0.25 µg/mL
- LVFX conc. ([2]; LVFX conc. in combination with MEPM 0.0313 μg/ml and compound of Example 26 1.25 μg/ml, PAM 1020): 0.25 µg/mL
- LVFX conc. ([2]; LVFX conc. in combination with MEPM 0.0313 μg/ml and compound of Example 26 2.5 μg/ml, PAM 1020): 0.125 µg/mL
- LVFX conc. ([2]; LVFX conc. in combination with MEPM 0.0313 μg/ml and compound of Example 26 5 μg/ml, PAM 1020): 0.125 µg/mL
- LVFX conc. ([2]; LVFX conc. in combination with MEPM 0.0313 μg/ml and compound of Example 26 10 μg/ml, PAM 1020): 0.125 µg/mL
- LVFX conc. ([2]; LVFX conc. in combination with MEPM 0.0313 μg/ml and compound of Example 26 20 μg/ml, PAM 1020): 0.125 µg/mL
- LVFX conc. ([2]; LVFX conc. in combination with MEPM 0.0313 μg/ml and compound of Example 26 40 μg/ml, PAM 1020): 0.125 µg/mL
- LVFX conc. ([2]; LVFX conc. in combination with MEPM 0.0313 μg/ml, compound of Example 26 0 μg/ml, PAM 1020): 0.25 µg/mL
- LVFX conc. ([2]; LVFX conc. in combination with MEPM 0.0625 μg/ml and compound of Example 26 0.625 μg/ml, PAM 1020): 0.25 µg/mL
- LVFX conc. ([2]; LVFX conc. in combination with MEPM 0.0625 μg/ml and compound of Example 26 1.25 μg/ml, PAM 1020): 0.125 µg/mL
- LVFX conc. ([2]; LVFX conc. in combination with MEPM 0.0625 μg/ml and compound of Example 26 2.5 μg/ml, PAM 1020): 0.125 µg/mL
- LVFX conc. ([2]; LVFX conc. in combination with MEPM 0.0625 μg/ml and compound of Example 26 5 μg/ml, PAM 1020): 0.0625 µg/mL
- LVFX conc. ([2]; LVFX conc. in combination with MEPM 0.0625 μg/ml and compound of Example 26 10 μg/ml, PAM 1020): 0.0625 µg/mL
- LVFX conc. ([2]; LVFX conc. in combination with MEPM 0.0625 μg/ml and compound of Example 26 20 μg/ml, PAM 1020): 0.0313 µg/mL
- LVFX conc. ([2]; LVFX conc. in combination with MEPM 0.0625 μg/ml and compound of Example 26 40 μg/ml, PAM 1020): 0.0313 µg/mL
- LVFX conc. ([2]; LVFX conc. in combination with MEPM 0.0625 μg/ml, compound of Example 26 0 μg/ml, PAM 1020): 0.25 µg/mL
- LVFX conc. ([2]; LVFX conc. in combination with MEPM 0.125 μg/ml and compound of Example 26 0.625 μg/ml, PAM 1020): 0.125 µg/mL
- LVFX conc. ([2]; LVFX conc. in combination with MEPM 0.125 μg/ml and compound of Example 26 1.25 μg/ml, PAM 1020): 0.0625 µg/mL
- LVFX conc. ([2]; LVFX conc. in combination with MEPM 0.125 μg/ml and compound of Example 26 2.5 μg/ml, PAM 1020): 0.0313 µg/mL
- LVFX conc. ([2]; LVFX conc. in combination with MEPM 0.125 μg/ml and compound of Example 26 5 μg/ml, PAM 1020): 0.0156 µg/mL
- LVFX conc. ([2]; LVFX conc. in combination with MEPM 0.125 μg/ml and compound of Example 26 10 μg/ml, PAM 1020): 0.0039 µg/mL
- LVFX conc. ([2]; LVFX conc. in combination with MEPM 0.125 μg/ml, compound of Example 26 0 μg/ml, PAM 1020): 0.25 µg/mL
- LVFX conc. ([2]; LVFX conc. in combination with MEPM 0.25 μg/ml and compound of Example 26 0.625 μg/ml, PAM 1020): 0.0078 µg/mL
- LVFX conc. ([2]; LVFX conc. in combination with MEPM 0.25 μg/ml, compound of Example 26 0 μg/ml, PAM 1020): 2 µg/mL

- MIC [2]: 0.5 µg/mL
SMILES: C[C@@H](O)[C@H]1C(=O)N2C(C(=O)O)=C(S[C@@H]3CN[C@H](C(=O)N(C)C)C3)[C@H](C)[C@H]12 [MEPM, Meropenem]
- effect of combined use of three types of drugs ([2]; LVFX, MEPM and compound of Example 26 0.625-40 μg/ml, PAM 1020): apparent effects of the addition of MEPM were observed
- effect of MEPM on the combined use of two types of drugs, LVFX and the compound of Example 26 ([2]; compound of Example 26 0.625-40 μg/ml, PAM 1020): effects of the addition of MEPM were clearly observed
